In US20260000655A1, “PHARMACEUTICAL COMPOSITION FOR USE IN PREVENTION OR TREATMENT OF LIFESTYLE-RELATED DISEASE” (priority 2022, published 2026):

Key:
[1] = system: high-fat diet-induced obesity model mice; test: Glucose loading test in mouse; format: in vivo; conditions: HPH-15 10 mg/kg or 100 mg/kg orally, 28 days; glucose 0.5 g/kg intraperitoneally; compared to olive oil
Method: The effect of HPH-15 on the change in blood glucose levels in the presence of glucose was examined using mice.
High-fat diet-induced obesity model mice were prepared in the same manner as in Example 7. Then, HPH-15 (10 mg/kg or 100 mg/kg, […]) dissolved in olive oil or metformin (300 mg/kg, […]) was orally administered once a day for 28 days. Olive oil alone was administered as a control. After 28 days of administration of each, glucose was intraperitoneally administered (0.5 g/kg) to the high-fat diet-induced obesity model mice, and blood glucose levels (mg/dl) were measured at 0, 15, 30, 60, 90, and 120 minutes after administration using a blood glucose meter Glutest Aqua (Sanwa Kagaku Kenkyusho Co., Ltd.).

[2] = system: myotube cell model L6-GLUT4myc, liver cell model HepG2 cells, adipocyte model 3T3-L1; test: Production of lactic acid in cells; format: cell-based, rat, human, mouse; conditions: HPH-15 10 μM or 50 μM vs metformin 2 mM; 24 hours
Method: There is a concern that a therapeutic drug of diabetes may cause lactic acidosis due to the production of lactic acid, requiring caution, especially for patients with chronic renal failure or the elderly. Therefore, the production of lactic acid when HPH-15 was used was examined.
The myotube cell model L6-GLUT4myc, the liver cell model HepG2 cells, and the adipocyte model 3T3-L1 used in Example 1 were each seeded onto a 24-well plate (1×10^5 cells/well, […] of culture liquid) and cultured overnight. Then, a DMSO solution (1%) containing HPH-15 (final concentration: 10 μM or 50 μM) or metformin (final concentration: 2 mM) was added to the medium, and the cells were further cultured for 24 hours. As a control, only DMSO solution (1%) was added, and the cells were cultured for 24 hours in the same manner. Next, the amount of lactic acid accumulated in the cells was measured using the Lactate Assay Kit-WST (Dojindo Laboratories).

[3] = system: high-fat diet-induced obesity model mice; test: H&E staining of mouse tissue; format: in vivo
Method: High-fat diet-induced obesity model mice were prepared in the same manner as in Example 7. Note that the high-fat diet-induced obesity model mice develop liver damage and are thus used as a liver disease model. Then, HPH-15 (10 mg/kg or 100 mg/kg, […]) dissolved in olive oil or metformin (300 mg/kg, […]) was orally administered once a day for 28 days. Olive oil alone was administered as a control. After administration of each for 28 days, the liver, epididymis, and muscle of the high-fat diet-induced obesity model mice were stained with H&E and observed using a microscope. The results of H&E staining of the liver are shown in FIG. 12A, the results of H&E staining of the epididymis are shown in FIG. 12B, and the results of H&E staining of the muscle are shown in FIG. 12C.

[4] = system: adenosine monophosphate-activated protein kinase (AMPK); test: Activation of AMPK (p-AMPK/AMPK, Western blotting) in liver cell model HepG2; format: cell-based, human; conditions: HPH-15 at 1/40th the concentration of metformin (2 mM), 24 hours
Excerpt: The tissues involved in glucose uptake and glucose metabolism are mainly the muscle, the liver, and the fat. Thus, using a cell model of each tissue, the relationship between HPH-15 and activation of adenosine monophosphate-activated protein kinase (AMPK) was examined. Note that AMPK is known as a therapeutic target for diabetes. AMPK acts as an energy sensor, and when it detects a decrease in ATP serving as an intracellular energy source, it suppresses the synthesis of glucose, fats, and proteins and produces ATP. Exercise therapy for diabetes is based on this mechanism. Further, AMPK has been drawing attention as a factor that improves insulin resistance.
As a muscle cell model to be used, rat myoblast cell line L6-GLUT4myc (myoblasts expressing myc-tagged GLUT4) was cultured in a minimal essential medium a-MEM (10% FBS) and differentiated into myotubes. Differentiation into myotubes was performed by culturing L6-GLUT4 cells in a-MEM (10% FBS) and then changing the medium to a-MEM (2% FBS), followed by culturing for 6 days. Human HepG2 cell line was used as a liver cell model. As an adipocyte model to be used, mouse 3T3-L1 preadipocyte cell line was differentiated into adipocytes. Differentiation into adipocytes was performed as follows. […]
Next, bands of AMPK and p-AMPK were quantified using ImageJ to determine a ratio of activated AMPK relative to AMPK (p-AMPK/AMPK).

[5] = system: herpes; conditions: Non-Patent Literature 2; cited from earlier work
[6] = HPH-15 10 or 100 mg/kg orally 28 days

CC(C)(C)SCCNC(=S)c1cccc(C(=S)NCCSC(C)(C)C)n1 [HPH-15]
glucose metabolism (blood glucose levels, IAUC) after glucose loading [1]: significantly improved
production of lactic acid [2]: equal to or less than that by metformin
visible fat in liver tissue and epididymal adipose tissue (H&E) ([3]; HPH-15 100 mg/kg orally 28 days): almost no fat was visible
cell area ratio in the epididymal adipose tissue (size of adipocytes, H&E) [3, 6]: reducing the cell area ratio
macrophage infiltration in epididymal adipose tissue (H&E) [3, 6]: does not cause macrophage infiltration
percentage of fat in the liver tissue (H&E) ([3]; HPH-15 10 or 100 mg/kg orally 28 days, compared to the control and metformin 300 mg/kg): significantly reducing the percentage of fat in the liver tissue
tissue changes or toxicity in the muscle (H&E) ([3]; orally once a day 28 days, FIG. 12C): no tissue changes or toxicity was observed
AMPK activation (p-AMPK/AMPK) compared to when metformin was used [4]: approximately 40%
anti-herpes activity [5]: has anti-herpes activity
